Measurements taken from patent EP0010358A1, “Beta-lactam compounds, processes for their preparation, compositions containing them, intermediates of use in their preparation and methods for the production thereof” (GLAXO GROUP LIMITED, priority 1978, dated 1980).
Converted amounts (≈) assume the structure as drawn. Like-named read-outs stand apart in the source and are kept apart here.

Experiments:
Assay in all cases: Determination of Minimum Inhibitory Concentrations (MIC), agar dilution
Type in all cases: cell-based
[1] = test system: E. cloacae 1051E; conditions: Enterobacter cloacae
Description: (§1) Serial two-fold dilutions of freshly prepared test solutions were made into Oxoid No. 1 Nutrient agar with or without added enrichment and poured into petri dishes. Plates were inoculated with a multipoint inoculator with inoculum containing approximately 10^5 colony forming units of the organisms shown in the following Table, all of which organisms are clinical isolates. The MIC, quoted in the Table as µg/ml, was read after 18 hours incubation at 37°C as the lowest concentration which inhibited growth.

[2] = test system: E. cloacae 1321E; conditions: Enterobacter cloacae
Description: as §1

[3] = test system: E. coli 851E; conditions: Escherichia coli
Description: as §1

[4] = test system: H. influenzae 1184E; conditions: Haemophilus influenzae
Description: as §1

[5] = test system: K. aerogenes 1522E; conditions: Klebsiella aerogenes
Description: as §1

[6] = test system: Micrococcus Sp 1810E; conditions: SP1810E
Description: as §1

[7] = test system: S. marcescens 1324E; conditions: Serratia marcescens
Description: as §1

[8] = test system: Staph. aureus 853E; conditions: Staphylococcus aureus
Description: as §1

[9] = E. cloacae 1051E, clinical isolate, Oxoid No. 1 Nutrient agar, approx. 10^5 colony forming units, 18 hours at 37°C, read-out: MIC
[10] = E. cloacae 1321E, clinical isolate, Oxoid No. 1 Nutrient agar, approx. 10^5 colony forming units, 18 hours at 37°C, read-out: MIC
[11] = E. coli 851E, clinical isolate, Oxoid No. 1 Nutrient agar, approx. 10^5 colony forming units, 18 hours at 37°C, read-out: MIC
[12] = H. influenzae 1184E, clinical isolate, Oxoid No. 1 Nutrient agar, approx. 10^5 colony forming units, 18 hours at 37°C, read-out: MIC
[13] = K. aerogenes 1522E, clinical isolate, Oxoid No. 1 Nutrient agar, approx. 10^5 colony forming units, 18 hours at 37°C, read-out: MIC
[14] = Micrococcus Sp 1810E, clinical isolate, Oxoid No. 1 Nutrient agar, approx. 10^5 colony forming units, 18 hours at 37°C, read-out: MIC
[15] = S. marcescens 1324E, clinical isolate, Oxoid No. 1 Nutrient agar, approx. 10^5 colony forming units, 18 hours at 37°C, read-out: MIC
[16] = Staph. aureus 853E, clinical isolate, Oxoid No. 1 Nutrient agar, approx. 10^5 colony forming units, 18 hours at 37°C, read-out: MIC

Row | MIC [1, 9] | MIC [2, 10] | MIC [3, 11] | MIC [4, 12] | MIC [5, 13] | MIC [6, 14] | MIC [7, 15] | MIC [8, 16] | SMILES | MIC ([1]; 1051E, 18 h) | MIC ([2]; 1321E, 18 h) | MIC ([3]; 851E, 18 h) | MIC ([4]; 1184E, 18 h) | MIC ([5]; 1522E, 18 h) | MIC ([6]; Micrococcus, 18 h) | MIC ([7]; 1324E, 18 h) | MIC ([8]; 853E, 18 h)
1 | 1 µg/mL (≈ 4.13 µM) | 1 µg/mL (≈ 4.13 µM) | 1 µg/mL (≈ 4.13 µM) | 2 µg/mL (≈ 8.26 µM) | 2 µg/mL (≈ 8.26 µM) | 0.1 µg/mL (≈ 0.413 µM) | 2 µg/mL (≈ 8.26 µM) | 2 µg/mL (≈ 8.26 µM) | O=CNCCC1=C(C(=O)O)N2C(=O)CC2S1 (racemic) [Example 4, (5RS)-2-(2-Formamidoethyl)pen-2-em-3-carboxylic acid] |  |  |  |  |  |  |  | 
2 |  |  |  |  |  |  |  |  | CC(=O)NCCC1=C(C(=O)[O-])N2C(=O)CC2S1.[K+] (racemic) [Example 7, Potassium (5RS)-2-(2-acetamidoethyl)pen-2-em-3-carboxylate] | 16 µg/mL | 4 µg/mL | 8 µg/mL | 16 µg/mL | 8 µg/mL | 2 µg/mL | 31 µg/mL | 2 µg/mL
3 | 16 µg/mL | 8 µg/mL | 8 µg/mL | 8 µg/mL | 8 µg/mL | 1 µg/mL | 8 µg/mL | 62 µg/mL | CNC(=O)NCCC1=C(C(=O)O)N2C(=O)CC2S1 (racemic) [Example 10, Potassium (5RS)-2-(2-N-methylureidoethyl)pen-2-em-3-carboxylate] |  |  |  |  |  |  |  | 
4 | 16 µg/mL | 8 µg/mL | 2 µg/mL | 16 µg/mL | 2 µg/mL | 0.2 µg/mL | 8 µg/mL | 0.2 µg/mL | O=C(NCCC1=C(C(=O)O)N2C(=O)CC2S1)Nc1ccccc1 (racemic) [Example 11, Potassium (5RS)-2-(2-N-phenylureidoethyl)pen-2-em-3-carboxylate] |  |  |  |  |  |  |  | 
